Laboratory results from US20260285850A1, “SUBSTITUTED OXAZOLIDINONES AND IMIDAZOLINONES AS HERBICIDES” (FMC CORPORATION, priority 2023, published 2026).

What was measured:
Assay type in all cases: in vivo
[1] = tested on: ryegrass, Italian (italian ryegrass, Lolium multiflorum); experiment: Test A postemergence application, visual injury rating 0-100
Outline: (§1)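 Preemergence directed soil spray or postemergence spray (2-10 cm, 1-2 leaf); loam/sand mix; compound in non-phytotoxic solvent + surfactant. Greenhouse, 10 d. Visual injury vs untreated, 0 = none, 100 = complete control.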

[2] = tested on: barnyardgrass (Echinochloa crus-galli); experiment: as above
Outline: as §1

[3] = tested on: corn (Zea mays); experiment: as above
Outline: as §1

[4] = tested on: horseweed (Erigeron canadensis); experiment: as above
Outline: as §1

[5] = tested on: soybean (Glycine max); experiment: as above
Outline: as §1

[6] = tested on: ragweed (common ragweed, Ambrosia artemisiifolia); experiment: as above
Outline: as §1

[7] = tested on: wheat (Triticum aestivum); experiment: as above
Outline: as §1

[8] = tested on: green foxtail (Setaria viridis); experiment: as above
Outline: as §1

[9] = tested on: blackgrass (Alopecurus myosuroides); experiment: as above
Outline: as §1

[10] = tested on: kochia (Bassia scoparia); experiment: as above
Outline: as §1

[11] = tested on: palmer (palmer amaranth, palmer pigweed, Amaranthus palmeri); experiment: as above
Outline: as §1

[12] = tested on: galium (catchweed bedstraw, Galium aparine); experiment: as above
Outline: as §1

[13] = tested on: oat, wild (wild oat, Avena fatua); experiment: as above
Outline: as §1

[14] = tested on: ryegrass, Italian (italian ryegrass, Lolium multiflorum); experiment: Test A preemergence soil spray, visual injury rating 0-100; conditions: 10 days
Outline: as §1

[15] = tested on: barnyardgrass (Echinochloa crus-galli); experiment: as above; conditions: 10 days
Outline: as §1

[16] = tested on: corn (Zea mays); experiment: as above; conditions: 10 days
Outline: as §1

[17] = tested on: soybean (Glycine max); experiment: as above; conditions: 10 days
Outline: as §1

[18] = tested on: ragweed (common ragweed, Ambrosia artemisiifolia); experiment: as above; conditions: 10 days
Outline: as §1

[19] = tested on: wheat (Triticum aestivum); experiment: as above; conditions: 10 days
Outline: as §1

[20] = tested on: green foxtail (Setaria viridis); experiment: as above; conditions: 10 days
Outline: as §1

[21] = tested on: blackgrass (Alopecurus myosuroides); experiment: as above; conditions: 10 days
Outline: as §1

[22] = tested on: kochia (Bassia scoparia); experiment: as above; conditions: 62 g ai/ha, 10 days, 0 = no effect, 100 = complete control
Outline: as §1

[23] = tested on: palmer (palmer amaranth, palmer pigweed, Amaranthus palmeri); experiment: as above; conditions: 10 days
Outline: as §1

[24] = tested on: oat, wild (wild oat, Avena fatua); experiment: as above; conditions: 10 days
Outline: as §1

[25] = tested on: ducksalad (Heteranthera limosa); experiment: Test B flooded paddy test, visual plant response rating 0-100; conditions: 250 g ai/ha, Flood, applied to paddy water, evaluated after 13 days
Outline: (§2)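 Visual scores versus untreated controls were recorded 13 days after treatment of greenhouse-held plants. At the 2-leaf stage, pots were flooded 3 cm above the soil surface and compounds added straight to the water.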

[26] = tested on: rice (Oryza sativa); experiment: as above; conditions: 250 g ai/ha, Flood, applied to paddy water, evaluated after 13 days
Outline: as §2

[27] = tested on: barnyardgrass (Echinochloa crusgalli); experiment: as above; conditions: 250 g ai/ha, Flood, applied to paddy water, evaluated after 13 days
Outline: as §2

[28] = tested on: sedge, umbrella (small-flower umbrella sedge, Cyperus difformis); experiment: as above; conditions: 250 g ai/ha, Flood, applied to paddy water, evaluated after 13 days
Outline: as §2

[29] = 62 g ai/ha, postemergence, 10 days, 0 = no effect, 100 = complete control
[30] = Postemergence, 16 g ai/ha, greenhouse 10 days, 0 no effect, 100 complete control
[31] = 62 g ai/ha, 0 = no effect, 100 = complete control

In the case of `CC(C)COC(=O)C1=CCC(NC(=O)C2(C)CN(c3cc(Cl)cc(Cl)c3)C(=O)O2)C1` (stereo not drawn) [Compound 155], the “Ryegrass, Italian plant response rating (0-100)” value [1, 29] is reported as 0, the “Ryegrass, Italian plant response rating (0 to 100 scale)” value [1, 30] is reported as 0 and the “Barnyardgrass plant response rating (0-100)” value [2, 29] is reported as 10. The “Barnyardgrass plant response rating (0 to 100 scale)” value [2, 30] was 0, the “Corn plant response rating (0-100)” value [3, 29] was 0 and the “Corn plant response rating (0 to 100 scale)” value [3, 30] was 0. The “Horseweed plant response rating (0-100)” value [4, 29] was 0, the “Horseweed plant response rating (0 to 100 scale)” value [4, 30] was 0 and the “Soybean plant response rating (0-100)” value [5, 29] was 20. For the same compound, the “Soybean plant response rating (0 to 100 scale)” value [5, 30] was 0, the “Ragweed plant response rating (0-100)” value [6, 29] was 30 and the “Ragweed plant response rating (0 to 100 scale)” value [6, 30] was 0. The “Wheat plant response rating (0-100)” value [7, 29] was 0, the “Wheat plant response rating (0 to 100 scale)” value [7, 30] was 0 and the “Foxtail, Green plant response rating (0-100)” value [8, 29] was 20. For the same compound, the “Foxtail, Green plant response rating (0 to 100 scale)” value [8, 30] was 0, the “Blackgrass plant response rating (0-100)” value [9, 29] was 0 and the “Blackgrass plant response rating (0 to 100 scale)” value [9, 30] was 0. The “Kochia plant response rating (0-100)” value [10, 29] was 40, the “Kochia plant response rating (0 to 100 scale)” value [10, 30] was 0 and the “Pigweed, Palmer plant response rating (0-100)” value [11, 29] was 0. The “Pigweed, Palmer plant response rating (0 to 100 scale)” value [11, 30] was 0, the “Galium plant response rating (0-100)” value [12, 29] was 70 and the “Galium plant response rating (0 to 100 scale)” value [12, 30] was 0. For the same compound, the “Oat, Wild plant response rating (0-100)” value [13, 29] was 0, the “Oat, Wild plant response rating (0 to 100 scale)” value [13, 30] was 0 and the “Ryegrass, Italian plant response rating” value ([14]; 16 g ai/ha, 0 to 100 scale) was 0. For the same compound, the “Ryegrass, Italian plant response rating (0-100)” value [14, 31] was 0, the “Barnyardgrass plant response rating” value ([15]; 16 g ai/ha, 0 to 100 scale) was 0 and the “Barnyardgrass plant response rating (0-100)” value [15, 31] was 10. For the same compound, the “Corn plant response rating” value ([16]; 16 g ai/ha, 0 to 100 scale) was 0, the “Corn plant response rating (0-100)” value [16, 31] was 0 and the “Soybean plant response rating” value ([17]; 16 g ai/ha, 0 to 100 scale) was 0. The “Soybean plant response rating (0-100)” value [17, 31] was 0, the “Ragweed plant response rating” value ([18]; 16 g ai/ha, 0 to 100 scale) was 0 and the “Ragweed plant response rating (0-100)” value [18, 31] was 0. For the same compound, the “Wheat plant response rating” value ([19]; 16 g ai/ha, 0 to 100 scale) was 0, the “Wheat plant response rating (0-100)” value [19, 31] was 10 and the “Foxtail, Green plant response rating” value ([20]; 16 g ai/ha, 0 to 100 scale) was 30. For the same compound, the “Foxtail, Green plant response rating (0-100)” value [20, 31] was 30, the “Blackgrass plant response rating” value ([21]; 16 g ai/ha, 0 to 100 scale) was 0 and the “Blackgrass plant response rating (0-100)” value [21, 31] was 0. For the same compound, the “Kochia plant response rating (0-100)” value [22] was 20, the “Pigweed, Palmer plant response rating” value ([23]; 16 g ai/ha, 0 to 100 scale) was 0 and the “Pigweed, Palmer plant response rating (0-100)” value [23, 31] was 0. For the same compound, the “Oat, Wild plant response rating” value ([24]; 16 g ai/ha, 0 to 100 scale) was 0, the “Oat, Wild plant response rating (0-100)” value [24, 31] was 0 and the “Plant response rating, Ducksalad (0 to 100 scale, 0 is no effect and 100 is complete control)” value [25] was 0. The “Plant response rating, Rice (0 to 100 scale, 0 is no effect and 100 is complete control)” value [26] was 0, the “Plant response rating, Barnyardgrass (0 to 100 scale, 0 is no effect and 100 is complete control)” value [27] was 0 and the “Plant response rating, Sedge, Umbrella (0 to 100 scale, 0 is no effect and 100 is complete control)” value [28] was 0.
